Drawing on US12583849B2, “KCNT1 inhibitors and methods of use” (Praxis Precision Medicines, Inc., priority 2020, dated 2026), this text covers IC50 for 25 compounds.

The structures appear in SMILES notation. Some results are limits rather than exact numbers.

The assay has as its target T1, KCNT1 (KNa1.1, Slack) (Homo sapiens, UniProt Q5JUK3).
T1 construct: expressed in transfected cells; host or cells: HEK-TREX (tetracycline-inducible cell line)
T1 sequence (Q5JUK3 1-1230): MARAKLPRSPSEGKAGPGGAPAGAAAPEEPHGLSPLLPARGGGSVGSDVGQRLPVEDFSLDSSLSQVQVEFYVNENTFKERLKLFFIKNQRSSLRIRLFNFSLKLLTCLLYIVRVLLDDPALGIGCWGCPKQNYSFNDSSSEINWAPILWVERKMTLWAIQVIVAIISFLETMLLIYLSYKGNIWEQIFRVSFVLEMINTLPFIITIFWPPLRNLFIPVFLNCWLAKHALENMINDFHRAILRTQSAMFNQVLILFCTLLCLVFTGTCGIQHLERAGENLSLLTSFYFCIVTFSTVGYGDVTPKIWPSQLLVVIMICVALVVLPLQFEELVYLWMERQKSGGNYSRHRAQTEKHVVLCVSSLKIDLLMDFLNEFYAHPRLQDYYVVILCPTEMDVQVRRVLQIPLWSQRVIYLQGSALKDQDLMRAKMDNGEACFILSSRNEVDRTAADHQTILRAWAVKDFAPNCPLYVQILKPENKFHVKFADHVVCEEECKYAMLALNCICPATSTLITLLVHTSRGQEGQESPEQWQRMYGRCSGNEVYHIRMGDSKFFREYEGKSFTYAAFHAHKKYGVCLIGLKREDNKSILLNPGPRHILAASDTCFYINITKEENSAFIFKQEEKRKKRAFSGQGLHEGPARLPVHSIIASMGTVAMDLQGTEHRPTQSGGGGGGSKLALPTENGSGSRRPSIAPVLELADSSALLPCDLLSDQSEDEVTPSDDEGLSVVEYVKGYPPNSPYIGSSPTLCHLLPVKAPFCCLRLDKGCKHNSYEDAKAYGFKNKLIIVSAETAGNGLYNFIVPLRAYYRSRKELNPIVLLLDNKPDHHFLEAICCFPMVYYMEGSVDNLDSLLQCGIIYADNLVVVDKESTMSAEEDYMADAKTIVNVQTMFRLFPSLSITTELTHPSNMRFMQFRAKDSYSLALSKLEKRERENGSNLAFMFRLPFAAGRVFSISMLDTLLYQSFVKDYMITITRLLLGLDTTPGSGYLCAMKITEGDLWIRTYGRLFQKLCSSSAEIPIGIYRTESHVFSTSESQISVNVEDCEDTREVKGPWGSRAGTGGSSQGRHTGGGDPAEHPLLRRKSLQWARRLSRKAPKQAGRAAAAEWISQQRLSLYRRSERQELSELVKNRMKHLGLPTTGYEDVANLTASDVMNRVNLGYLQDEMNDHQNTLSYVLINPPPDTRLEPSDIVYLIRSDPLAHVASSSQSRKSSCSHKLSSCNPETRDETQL
Briefly: KCNT1-WT-Basal Patch Clamp Assay. The note with it: tetracycline inducible cell line (HEK-TREX); SyncroPatch 384PE automated patch clamp, perforated patch mode, room temperature, step from -80 mV to 0 mV. In kind it is cell-based. As for the experimental part: KCNT1-WT-Basal—Patch Clamp Assay
Inhibition of KCNT1 (KNa1.1, Slack) was evaluated using a tetracycline inducible cell line (HEK-TREX). Currents were recorded using the SyncroPatch 384PE automated, patch clamp system. Pulse generation and data collection were performed with PatchController384 V1.3.0 and DataController384 V1.2.1 (Nanion Technologies). The access resistance and apparent membrane capacitance were estimated using built-in protocols. Current were recorded in perforated patch mode (10 μM escin) from a population of cells. The cells were lifted, triturated, and resuspended at 800,000 cells/ml. The cells were allowed to recover in the cell hotel prior to experimentation. Currents were recorded at room temperature. The external solution contained the following (in mM): NaCl 105, NMDG 40, KCl 4, MgCl2 1, CaCl2 5 and HEPES 10 (pH=7.4, Osmolarity ˜300 mOsm). The extracellular solution was used as the wash, reference and compound delivery solution. The internal solution contained the following (in mM): NaCl 70, KF 70, KCl 10, EGTA 5, HEPES 5 and Escin 0.01 (pH=7.2, Osmolarity ˜295 mOsm). Escin is made at a 5 mM stock in water, aliquoted, and stored at −20° C. The compound plate was created at 2× concentrated in the extracellular solution. The compound was diluted to 1:2 when added to the recording well. The amount of DMSO in the extracellular solution was held constant at the level used for the highest tested concentration. A holding potential of −80 mV with a 100 ms step to 0 mV was used. Mean current was measured during the step to 0 mV. […] The average mean current from 3 sweeps was calculated and the % inhibition of each compound was calculated. The % Inhibition as a function of the compound concentration was fit with a Hill equation to derive IC50, slope, min and max parameters. If KCNT1 inhibition was less than 50% at the highest tested concentration or if an IC50 could not be calculated, then a percent inhibition was reported in place of the IC50.
In this table, “A” indicates IC50 of less than or equal to 1 μM; “B” indicates inhibition of between 1 μM to 20 μM; and “C” indicates inhibition of greater than or equal to 20 μM.
Background: In patch-clamp work, channel activity is measured electrically.

In general, IC50 refers to the midpoint of a concentration-inhibition curve. A high value points to a need for much substance. `C[C@H](NC(=O)C1(C)CCCCC1)c1nc(-c2ccnc(C(F)(F)F)c2)no1` [Compound I-71, 1-methyl-N-[(1S)-1-[3-[2-(trifluoromethyl)-4-pyridyl]-1,2,4-oxadiazol-5-yl]ethyl]cyclohexanecarboxamide]: the concentration for half-maximal inhibition (IC50) is no more than 1000 nM.

The compound `Cc1nc(C(F)(F)F)ccc1C(=O)N[C@@H](C)c1nc(-c2ccnc(C3CC3)c2)no1` [Compound I-53, (S)—N-(1-(3-(2-cyclopropylpyridin-4-yl)-1,2,4-oxadiazol-5-yl)ethyl)-2-methyl-6-(trifluoromethyl)nicotinamide] registered a half-inhibitory concentration (IC50) of no more than 1000 nM.

Compound `C[C@H](NC(=O)c1ccnc(C(F)(F)F)c1)c1nc(-c2ccnc(C3CC3)c2)no1` [Compound I-96, (S)—N-(1-(3-(2-cyclopropylpyridin-4-yl)-1,2,4-oxadiazol-5-yl)ethyl)-2-(trifluoromethyl)isonicotinamide] came in with an IC50 of no more than 1000 nM.

Consider `C[C@H](NC(=O)C1CCC(O)CC1)c1nc(-c2ccnc(C(F)(F)F)c2)no1` (single isomer, unassigned) [Compound I-77], for which the IC50 is no less than 20000 nM.

`C[C@H](NC(=O)C1CC(C)(C)C1)c1nc(-c2ccnc(C(F)(F)F)c2)no1` [Compound I-56, (S)-3,3-dimethyl-N-(1-(3-(2-(trifluoromethyl)pyridin-4-yl)-1,2,4-oxadiazol-5-yl)ethyl)cyclobutane-1-carboxamide]: the IC50 is no more than 1000 nM.

On to `Cc1cccc(C(=O)N[C@@H](C)c2nc(-c3ccnc(C4CC4)c3)no2)c1` [Compound I-81, N-[(1S)-1-[3-(2-cyclopropyl-4-pyridyl)-1,2,4-oxadiazol-5-yl]ethyl]-3-methyl-benzamide], for which the 50% inhibitory concentration (IC50) is no more than 1000 nM.

`C[C@H](NC(=O)c1ccnc(C2CC2)c1)c1nc(-c2ccnc(C3CC3)c2)no1` [Compound I-99, (S)-2-cyclopropyl-N-(1-(3-(2-cyclopropylpyridin-4-yl)-1,2,4-oxadiazol-5-yl)ethyl)isonicotinamide] returned an IC50 of no more than 1000 nM.

As to `CC(C)Oc1cc(-c2noc([C@H](C)NC(=O)N3CCCc4ccccc43)n2)ccn1` [II-3], the IC50 is no more than 1000 nM.

`C[C@H](NC(=O)C1CC2CCC1CC2)c1nc(-c2ccnc(C(F)(F)F)c2)no1` (stereo partly drawn) [Compound I-60, N—((S)-1-(3-(2-(trifluoromethyl)pyridin-4-yl)-1,2,4-oxadiazol-5-yl)ethyl)bicyclo[2.2.2]octane-2-carboxamide] came in with an IC50 of no more than 1000 nM.

`C[C@H](NC(=O)N(C)c1ccccc1)c1nc(-c2ccnc(C(F)(F)F)c2)no1` [II-12] displayed an IC50 of no more than 1000 nM.

In the case of `Cc1nc(C)c(C(=O)N[C@@H](C)c2nc(-c3cccc(F)c3)no2)s1` [Compound I-39, (S)—N-(1-(3-(3-fluorophenyl)-1,2,4-oxadiazol-5-yl)ethyl)-2,4-dimethylthiazole-5-carboxamide], the IC50 fell in the range of 1000 to 20000 nM.

`C[C@H](NC(=O)[C@@H]1CCC(=O)N1)c1nc(-c2ccnc(C(F)(F)F)c2)no1` [Compound I-54, (S)-5-oxo-N—((S)-1-(3-(2-(trifluoromethyl)pyridin-4-yl)-1,2,4-oxadiazol-5-yl)ethyl)pyrrolidine-2-carboxamide]: the IC50 was no less than 20000 nM.

`C[C@H](NC(=O)Cc1ccccc1)c1nc(-c2ccnc(C(F)(F)F)c2)no1` [Compound I-13, (S)-2-phenyl-N-(1-(3-(2-(trifluoromethyl)pyridin-4-yl)-1,2,4-oxadiazol-5-yl)ethyl)acetamide] registered a concentration for half-maximal inhibition (IC50) of 1000 to 20000 nM.

The compound `C[C@H](NC(=O)N1CCCc2ccccc21)c1nc(-c2ccnc(C3CC3)c2)no1` [II-8] had an IC50 of no more than 1000 nM.

As for `CC(NC(=O)c1cn2c(n1)CCCC2)c1nc(-c2cccc(F)c2)no1` (stereo not shown) [Compound I-52, N-[1-[3-(3-fluorophenyl)-1,2,4-oxadiazol-5-yl]ethyl]-5,6,7,8-tetrahydroimidazo[1,2-a]pyridine-2-carboxamide], the IC50 is no less than 20000 nM.

The compound `C[C@H](NC(=O)Cc1ccccc1)c1nc(-c2ccnc(C3CC3)c2)no1` [Compound I-42, (S)—N-(1-(3-(2-cyclopropylpyridin-4-yl)-1,2,4-oxadiazol-5-yl)ethyl)-2-phenylacetamide] had an IC50 of no more than 1000 nM.

`C[C@H](NC(=O)c1csc(C(F)(F)F)n1)c1nc(-c2ccnc(C(F)(F)F)c2)no1` [Compound I-10, (S)-2-(trifluoromethyl)-N-(1-(3-(2-(trifluoromethyl)pyridin-4-yl)-1,2,4-oxadiazol-5-yl)ethyl)thiazole-4-carboxamide] returned an IC50 of no more than 1000 nM.

As for `COc1ccccc1C(=O)N[C@@H](C)c1nc(-c2ccnc(C3CC3)c2)no1` [Compound I-75, N-[(1S)-1-[3-(2-cyclopropyl-4-pyridyl)-1,2,4-oxadiazol-5-yl]ethyl]-2-methoxy-benzamide], the IC50 is no more than 1000 nM.

In turn, `C[C@H](NC(=O)c1ccccn1)c1nc(-c2ccnc(C(F)(F)F)c2)no1` [Compound I-7, (S)—N-(1-(3-(2-(trifluoromethyl)pyridin-4-yl)-1,2,4-oxadiazol-5-yl)ethyl)picolinamide] gave a half-maximal inhibitory concentration (IC50) of no less than 20000 nM.

Regarding `Cc1c(C(=O)NC(C)c2nc(-c3cccc(F)c3)no2)nc2ccccn12` (stereo not shown) [Compound I-49, N-[1-[3-(3-fluorophenyl)-1,2,4-oxadiazol-5-yl]ethyl]-3-methyl-imidazo[1,2-a]pyridine-2-carboxamide], the IC50 is no less than 20000 nM.

Turning to `CC(C)Oc1cc(-c2noc([C@H](C)NC(=O)N3CCOc4ccccc43)n2)ccn1` [II-4], the IC50 is no more than 1000 nM.

The compound `C[C@H](NC(=O)c1nc(C(F)(F)F)cs1)c1nc(-c2ccnc(C(F)(F)F)c2)no1` [Compound I-5, (S)-4-(trifluoromethyl)-N-(1-(3-(2-(trifluoromethyl)pyridin-4-yl)-1,2,4-oxadiazol-5-yl)ethyl)thiazole-2-carboxamide] came in with an IC50 of no more than 1000 nM.

In turn, `C[C@H](NC(=O)c1ccccc1Cl)c1nc(-c2ccnc(C3CC3)c2)no1` [Compound I-80, 2-chloro-N-[(1S)-1-[3-(2-cyclopropyl-4-pyridyl)-1,2,4-oxadiazol-5-yl]ethyl]benzamide] yielded an IC50 of no more than 1000 nM.

As for `C[C@H](NC(=O)c1ccc(Br)s1)c1nc(-c2ccnc(C3CC3)c2)no1` [Compound I-57, (S)-5-bromo-N-(1-(3-(2-cyclopropylpyridin-4-yl)-1,2,4-oxadiazol-5-yl)ethyl)thiophene-2-carboxamide], the IC50 is no more than 1000 nM.

Consider `CC(=O)N1CCCC(C(=O)N[C@@H](C)c2nc(-c3ccnc(C(F)(F)F)c3)no2)C1` (mixture of isomers) [Compound I-85, 1-acetyl-N-[(1S)-1-[3-[2-(trifluoromethyl)-4-pyridyl]-1,2,4-oxadiazol-5-yl]ethyl]piperidine-3-carboxamide], for which the half-maximal inhibitory concentration (IC50) is no less than 20000 nM.
